For one assay, the target named is N-type calcium channel (Homo sapiens, UniProt Q00975). Kind of assay: N-channel FLIPR assay. In kind it is cell-based.
The test system of assay [1] is formalin-induced nocifensive behaviours. As to the kind of experiment: Formalin test. In kind it is in vivo, rats. The note with it: Rattus norvegicus, read-out: IPT (Formalin). How it is done:
The Formalin test assesses the inhibitory effects of orally administered N-type calcium channel antagonists on formalin-induced nocifensive behaviours in rats. The formalin test is a well established pain test (Dubuisson and Dennis, 1977; Wheeler-Aceto et al., 1990; Coderre et al., 1993). This test consists of two distinct phases of formalin-induced behaviour. The first phase response, occurring between 0 to 5 minutes, is caused by acute nociception to the noxious chemical (formalin) injected into the paw. This is followed by a quiescent period of between 5 to 15 min post injection. A second phase response, occurring after 15 minutes and lasting up to 60 minutes, is caused by sensitisation of the central neurons in the dorsal horn. Central sensitisation augments the noxious afferent input and a stronger pain barrage is transmitted into the brain. Inhibition of the second phase response is indicative of a central mechanism of drug action.
The procedure for the formalin test is as follows: male rats are placed in a plexiglass chamber and observed for 30-45 min. to observe their baseline activity. Multiple groups of animals are pretreated with either vehicle or different doses of a test compound. Animals are dosed with the drug of interest either 40 min., if by the intraperitoneal route, or 90 min., if by the oral route, prior to injection of formalin into a hind paw (under the dorsal skin; 0.05 mL of sterile 5% formalin). The number of paw flinches and licks during first phase (0-5 min.) and second phase (20-35 min.) are scored and recorded. Flinch and lick responses are calculated as percentage of inhibition compared with the mean score of a saline control group. Drug potencies are expressed as the dose which causes 50% of the maximum inhibitory effect (“ID50”). Student t-tests are used for statistical analysis to determine the significance of drug effects. Compounds are considered active based on their ability to inhibit the flinch response.

A further assay relates to L-type calcium channel. Kind of assay: L-channel FLIPR assay. The assay is classed as cell-based, human. The note with it: 5-point concentration-response curves; SK-N-SH cells.
The subject of another assay is pain. The note with it: in vivo; cited from earlier work.

Where two headings read alike, the source gives them in different places.

Chain of N-type calcium channel (Q00975 whole entry): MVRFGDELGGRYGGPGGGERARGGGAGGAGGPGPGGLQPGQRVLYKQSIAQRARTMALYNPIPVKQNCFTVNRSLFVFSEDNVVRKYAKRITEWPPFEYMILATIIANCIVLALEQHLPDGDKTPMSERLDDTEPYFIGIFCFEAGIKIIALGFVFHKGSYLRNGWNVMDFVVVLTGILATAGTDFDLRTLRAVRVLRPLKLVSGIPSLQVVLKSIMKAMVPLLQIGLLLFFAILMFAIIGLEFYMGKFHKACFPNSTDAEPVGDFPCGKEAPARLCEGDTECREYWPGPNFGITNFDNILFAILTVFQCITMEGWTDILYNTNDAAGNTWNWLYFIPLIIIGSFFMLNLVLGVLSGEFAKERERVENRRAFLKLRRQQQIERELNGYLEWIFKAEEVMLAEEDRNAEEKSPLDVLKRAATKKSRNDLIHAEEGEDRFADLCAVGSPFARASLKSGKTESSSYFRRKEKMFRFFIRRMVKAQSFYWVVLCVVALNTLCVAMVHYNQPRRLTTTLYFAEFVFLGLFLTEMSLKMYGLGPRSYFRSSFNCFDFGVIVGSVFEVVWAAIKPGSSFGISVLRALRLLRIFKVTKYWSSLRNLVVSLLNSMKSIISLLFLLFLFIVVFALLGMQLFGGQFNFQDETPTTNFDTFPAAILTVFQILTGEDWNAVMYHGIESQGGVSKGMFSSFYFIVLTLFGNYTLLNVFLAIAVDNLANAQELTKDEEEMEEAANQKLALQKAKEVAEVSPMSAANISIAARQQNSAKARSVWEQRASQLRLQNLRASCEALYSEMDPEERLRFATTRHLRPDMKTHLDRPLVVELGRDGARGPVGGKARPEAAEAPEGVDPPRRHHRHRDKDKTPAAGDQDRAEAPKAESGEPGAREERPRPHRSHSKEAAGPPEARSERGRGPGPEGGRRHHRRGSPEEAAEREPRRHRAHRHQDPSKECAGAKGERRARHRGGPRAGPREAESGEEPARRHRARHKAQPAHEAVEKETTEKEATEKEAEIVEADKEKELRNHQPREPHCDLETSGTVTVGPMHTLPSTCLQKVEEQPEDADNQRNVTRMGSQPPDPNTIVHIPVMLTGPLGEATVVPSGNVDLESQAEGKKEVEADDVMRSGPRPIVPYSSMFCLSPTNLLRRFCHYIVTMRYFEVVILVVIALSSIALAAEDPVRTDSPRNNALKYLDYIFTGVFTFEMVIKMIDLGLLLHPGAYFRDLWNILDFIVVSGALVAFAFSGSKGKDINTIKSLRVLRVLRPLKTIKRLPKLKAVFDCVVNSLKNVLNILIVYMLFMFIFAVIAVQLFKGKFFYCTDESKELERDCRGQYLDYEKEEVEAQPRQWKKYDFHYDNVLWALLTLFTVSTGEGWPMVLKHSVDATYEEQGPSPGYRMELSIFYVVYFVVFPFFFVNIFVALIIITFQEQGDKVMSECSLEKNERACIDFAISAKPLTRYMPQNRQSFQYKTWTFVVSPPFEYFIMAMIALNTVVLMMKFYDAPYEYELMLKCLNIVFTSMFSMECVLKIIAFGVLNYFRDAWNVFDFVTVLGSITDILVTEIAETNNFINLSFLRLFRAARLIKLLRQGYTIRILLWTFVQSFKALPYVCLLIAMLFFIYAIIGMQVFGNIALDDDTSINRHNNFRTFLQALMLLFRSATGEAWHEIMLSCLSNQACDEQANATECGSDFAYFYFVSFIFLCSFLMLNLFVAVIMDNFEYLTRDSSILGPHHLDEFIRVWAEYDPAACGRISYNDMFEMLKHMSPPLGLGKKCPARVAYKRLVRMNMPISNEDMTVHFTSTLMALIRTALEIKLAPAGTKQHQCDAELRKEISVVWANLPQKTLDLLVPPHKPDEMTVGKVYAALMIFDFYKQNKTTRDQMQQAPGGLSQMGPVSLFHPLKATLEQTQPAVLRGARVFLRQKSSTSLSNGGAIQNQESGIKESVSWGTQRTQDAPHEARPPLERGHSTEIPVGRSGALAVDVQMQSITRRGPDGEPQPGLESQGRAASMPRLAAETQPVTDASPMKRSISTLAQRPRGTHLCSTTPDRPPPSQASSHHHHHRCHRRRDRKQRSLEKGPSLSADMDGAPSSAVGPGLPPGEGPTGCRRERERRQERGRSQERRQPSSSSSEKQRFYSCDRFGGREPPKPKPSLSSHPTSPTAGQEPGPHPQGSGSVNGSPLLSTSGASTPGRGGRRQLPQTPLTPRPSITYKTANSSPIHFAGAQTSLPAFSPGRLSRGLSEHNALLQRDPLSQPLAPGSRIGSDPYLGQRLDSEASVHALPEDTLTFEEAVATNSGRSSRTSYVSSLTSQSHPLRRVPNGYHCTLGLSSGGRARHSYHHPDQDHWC
Chain of N-type calcium channel (P54289 25-956 partner limits assumed): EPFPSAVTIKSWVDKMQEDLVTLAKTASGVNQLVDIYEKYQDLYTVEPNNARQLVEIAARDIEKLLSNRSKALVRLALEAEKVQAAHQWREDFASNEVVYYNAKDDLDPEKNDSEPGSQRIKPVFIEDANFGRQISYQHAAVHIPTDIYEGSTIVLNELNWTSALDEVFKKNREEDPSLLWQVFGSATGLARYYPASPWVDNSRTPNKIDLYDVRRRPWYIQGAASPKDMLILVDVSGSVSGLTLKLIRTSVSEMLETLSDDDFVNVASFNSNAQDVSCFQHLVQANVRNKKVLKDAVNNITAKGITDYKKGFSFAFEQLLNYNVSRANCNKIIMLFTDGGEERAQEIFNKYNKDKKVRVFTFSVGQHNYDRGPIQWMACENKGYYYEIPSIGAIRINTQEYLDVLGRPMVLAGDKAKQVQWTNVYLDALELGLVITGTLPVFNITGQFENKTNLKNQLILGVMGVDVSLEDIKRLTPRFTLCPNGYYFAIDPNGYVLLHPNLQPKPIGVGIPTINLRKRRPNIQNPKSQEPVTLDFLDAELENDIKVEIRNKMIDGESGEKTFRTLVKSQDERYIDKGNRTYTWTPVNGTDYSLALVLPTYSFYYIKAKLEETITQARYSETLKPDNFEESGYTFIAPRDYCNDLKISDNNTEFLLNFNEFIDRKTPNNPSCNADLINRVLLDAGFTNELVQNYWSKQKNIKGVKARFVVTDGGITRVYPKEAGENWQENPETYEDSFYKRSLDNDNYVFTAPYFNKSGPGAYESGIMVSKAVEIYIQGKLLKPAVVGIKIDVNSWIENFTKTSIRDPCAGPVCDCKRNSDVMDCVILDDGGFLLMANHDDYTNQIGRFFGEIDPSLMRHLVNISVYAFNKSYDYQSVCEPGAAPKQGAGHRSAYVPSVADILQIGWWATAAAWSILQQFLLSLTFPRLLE
Chain of N-type calcium channel (P54289 957-1103 partner limits assumed): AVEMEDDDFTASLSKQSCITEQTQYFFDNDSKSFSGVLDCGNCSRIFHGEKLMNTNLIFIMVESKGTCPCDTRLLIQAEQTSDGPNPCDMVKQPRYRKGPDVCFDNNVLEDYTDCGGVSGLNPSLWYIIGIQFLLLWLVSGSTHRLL
Chain of N-type calcium channel (Q02641 whole entry partner): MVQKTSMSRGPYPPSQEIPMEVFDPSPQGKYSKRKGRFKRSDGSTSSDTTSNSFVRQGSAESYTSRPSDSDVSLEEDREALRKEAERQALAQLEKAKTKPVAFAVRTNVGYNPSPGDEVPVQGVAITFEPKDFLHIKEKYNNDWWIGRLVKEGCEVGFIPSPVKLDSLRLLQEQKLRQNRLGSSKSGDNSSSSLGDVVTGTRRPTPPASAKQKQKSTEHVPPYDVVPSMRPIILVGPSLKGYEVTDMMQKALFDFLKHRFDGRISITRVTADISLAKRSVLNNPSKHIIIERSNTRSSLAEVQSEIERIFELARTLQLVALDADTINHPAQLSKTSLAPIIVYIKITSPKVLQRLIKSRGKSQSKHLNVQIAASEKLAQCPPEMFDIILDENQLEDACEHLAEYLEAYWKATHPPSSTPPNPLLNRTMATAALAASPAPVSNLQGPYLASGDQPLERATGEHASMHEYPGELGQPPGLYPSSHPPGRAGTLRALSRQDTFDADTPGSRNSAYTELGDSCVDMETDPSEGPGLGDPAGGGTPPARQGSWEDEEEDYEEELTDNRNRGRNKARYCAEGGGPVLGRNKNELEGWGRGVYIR
Experimental for L-type calcium channel: An immortalized cell line, SK-N-SH, derived from human neuroblastoma cells (ATCC product # HTB-11) was used for all experiments. Cells were grown in T75 flasks containing Eagle's minimum essential medium (MEM) w/Earle's salts, with 0.1 mM non-essential amino acids, 1.0 mM Na pyruvate and 10% fetal bovine serum (FBS; Cat. # SLM-034-B, Specialty Media). Cells were grown to 100% confluency (by visual microscopic estimation) before sub-culture. Cells were sub-cultured at a ratio of 1:3 by first rinsing with 3 mL PBS, replacing the PBS with PBS containing 0.25% trypsin until the cells detached from the surface. 1 mL of the resulting suspension was then added to a new flask containing 10 mL fresh media. Cells were then incubated (37° C., 5% CO2), and media was exchanged about 3 days after subculturing.
Cells used for experiments were at the 100% confluency growth stage. Each flask provided enough cells for three 96-well plates. […]
Maximum signal (L-channel+non-specific): 12 wells received 20 μL buffer addition only (no nitrendipine) in the first solution addition sequence to define the maximal K^+-evoked Ca^2+ increase mediated by L-channels+non-specific (non-L-channel mediated fluorescence increase). The coefficient of variation amongst these wells for the K^+-evoked peak increase in fluorescence units was typically less than 12%. […]

`COc1ccc(-c2cc(N)c3ccccc3n2)cc1` [Example 5, 2-(4-methoxyphenyl)-4-quinolinamine]: at N-type calcium channel, the IC50 was found to be 4.8 µM.
On to `Nc1cc(-c2cccc(F)c2)nc2ccccc12` [Example 9, 2-(3-fluorophenyl)-4-quinolinamine], for which the inhibition in vivo at 30 mg/kg in assay [1] (ip, 30 mg/kg, i.p., rats) came out at 90%; in assay [1] (po, 30 mg/kg, p.o., rats) it was 41%. In addition, the IC50 at N-type calcium channel came out at 2.1 µM.
`Cc1c(-c2ccccc2)nc2ccccc2c1C(=O)O` [Example 15, 3-methyl-2-phenyl-4-quinolinecarboxylic acid]: the IC50 on N-type calcium channel was above 10 µM.
On the same count and under the same terms, to `COc1ccc2nc(-c3ccccc3)cc(C(=O)O)c2c1` [Example 21, 6-methoxy-2-phenyl-4-quinolinecarboxylic acid] belongs above 10 µM; to `Nc1cc(-c2ccccc2F)nc2ccccc12` [Example 31, 2-(2-fluorophenyl)-4-quinolinamine], 8 µM.
Take `CN(C)c1cc(-c2cccc(F)c2)nc2ccccc12` [Example 11, 2-(3-fluorophenyl)-N,N-dimethyl-4-quinolinamine]: the inhibition in vivo at 30 mg/kg in assay [1] (ip, 30 mg/kg, i.p., rats) was 64%. Besides, the IC50 at N-type calcium channel is 3 µM.
For `Nc1ccc2nc(/C=C/c3ccccc3)cc(N)c2c1` [Example 24, 2-[(E)-2-phenylethenyl]-4,6-quinolinediamine], on N-type calcium channel, the IC50 was 5.4 µM.
In the case of `Nc1cc(/C=C/c2cccc(F)c2)nc2ccccc12` [Example 18, 2-[(E)-2-(3-fluorophenyl)ethenyl]-4-quinolinamine], the inhibition in vivo at 30 mg/kg in assay [1] (ip, 30 mg/kg, i.p., rats) came to 19%. The IC50 on N-type calcium channel came out at 4.3 µM.
For the compound `Cc1cc(C)c2c(N)cc(-c3ccccc3)nc2c1` [Example 19, 5,7-dimethyl-2-phenyl-4-quinolinamine], the IC50 on N-type calcium channel turned out to be 1.5 µM.
With `COc1ccc2nc(-c3ccccc3)cc(N)c2c1` [Example 22, 6-methoxy-2-phenyl-4-quinolinamine], the inhibition in vivo at 30 mg/kg in assay [1] (ip, 30 mg/kg, i.p., rats) is 16%. The IC50 at N-type calcium channel is around 3 µM.
As for `O=C(O)c1cc(-c2ccc(F)cc2)nc2ccccc12` [Example 8, 2-(4-fluorophenyl)-4-quinolinecarboxylic acid], at N-type calcium channel, the IC50 is above 10 µM.
Same read-out and setting: as for `Cc1cccc2c(N)cc(-c3ccccc3)nc12` [Example 20, 8-methyl-2-phenyl-4-quinolinamine], the figure is 3.1 µM; as for `COc1cccc2c(N)cc(-c3ccccc3)nc12` [Example 26, 8-methoxy-2-phenyl-4-quinolinamine], 5 µM; as for `CC(C)(C)c1cc(N)c2ccccc2n1` [Example 35, 2-tert-butyl-4-quinolinamine], above 10 µM.
Still for that read-out and setting: to `CC(=O)Nc1cc(/C=C/c2cccc(F)c2)nc2ccccc12` [Example 17, N-{2-[(E)-2-(3-fluorophenyl)ethenyl]-4-quinolinyl}acetamide] belongs 6.4 µM.
Same read-out and setting: to `Nc1cc(-c2ccc(Cl)cc2)nc2ccccc12` [Example 36, 2-(4-chlorophenyl)-4-quinolinamine] belongs 5.5 µM.
`CCOC(=O)C1=C(C)NC(C)=C(C(=O)OC)C1c1cccc([N+](=O)[O-])c1` (stereo not shown) [nitrendipine]: the IC50 in the assay with L-type calcium channel came out at 30 nM.
Regarding `O=C(O)c1cc(-c2ccccc2F)nc2ccccc12` [Example 28, 2-(2-fluorophenyl)-4-quinolinecarboxylic acid], the IC50 at N-type calcium channel was above 10 µM.
With `Cc1cccc(-c2cc(N)c3ccccc3n2)c1` [Example 37, 2-(3-methylphenyl)-4-quinolinamine], the inhibition in vivo at 30 mg/kg in assay [1] (ip, 30 mg/kg, i.p., rats) worked out at 47%; in assay [1] (po, 30 mg/kg, p.o., rats), 13%. The IC50 on N-type calcium channel was 1.2 µM.
Take conotoxin MVIIA: in the assay with pain, the “success rate for the treatment of pain” value is on record as around 85%.
On to `Nc1ccc2nc(/C=C/c3cccc(F)c3)cc(N)c2c1` [Example 25, 2-[(E)-2-(3-fluorophenyl)ethenyl]-4,6-quinolinediamine], for which the IC50 on N-type calcium channel is 3.8 µM.
Take `Nc1c2c(nc3ccccc13)-c1ccccc1CC2` [Example 27, 5,6-dihydrobenzo[c]acridin-7-amine]: the inhibition in vivo at 30 mg/kg in assay [1] (ip, 30 mg/kg, i.p., rats) turned out to be 50%. Moreover, the IC50 on N-type calcium channel was 1.1 µM.
For the compound `O=C(O)c1cc(-c2ccc(Cl)cc2)nc2ccccc12` [Example 2, 2-(4-chlorophenyl)-4-quinolinecarboxylic acid], on N-type calcium channel, the IC50 was above 10 µM.
The same measure, in the same setting: to `CCc1c(-c2ccccc2)nc2ccccc2c1N` [Example 29, 3-ethyl-2-phenyl-4-quinolinamine] belongs 1.2 µM.
For the compound `CNc1cc(-c2cccc(F)c2)nc2ccccc12` [Example 10, 2-(3-fluorophenyl)-N-methyl-4-quinolinamine], the inhibition in vivo at 30 mg/kg in assay [1] (ip, 30 mg/kg, i.p., rats) is 77%; in assay [1] (po, 30 mg/kg, p.o., rats), 46%. Also, the IC50 on N-type calcium channel was 1.6 µM.
On to `Cc1ccc(-c2cc(N)c3ccccc3n2)cc1` [Example 32, 2-(4-methylphenyl)-4-quinolinamine], for which, on N-type calcium channel, the IC50 was 3.1 µM.
In the case of `COc1ccc(-c2cc(C(=O)O)c3ccccc3n2)cc1` [Example 1, 2-(4-methoxyphenyl)-4-quinolinecarboxylic acid], the IC50 at N-type calcium channel was above 10 µM.
Still for that read-out and setting: to `Nc1cc(/C=C/c2ccccc2)nc2ccccc12` [Example 13, 2-[(E)-2-phenylethenyl]-4-quinolinamine] belongs 1.4 µM.
Regarding `Nc1ccc2nc(-c3ccccc3)cc(N)c2c1` [Example 3, 2-phenyl-4,6-quinolinediamine], the inhibition in vivo at 30 mg/kg was 45% in assay [1] (ip, 30 mg/kg, i.p., rats) and 28% in assay [1] (po, 30 mg/kg, p.o., rats). Besides, the IC50 on N-type calcium channel was found to be 3.5 µM.
Take `Cc1ccc(-c2cc(C(=O)O)c3ccccc3n2)cc1` [Example 7, 2-(4-methylphenyl)-4-quinolinecarboxylic acid]: the IC50 on N-type calcium channel was above 10 µM.
Still for that read-out and setting: to `Nc1c2c(nc3ccccc13)-c1ccccc1CCC2` [Example 34, 6,7-dihydro-5H-benzo[6,7]cyclohepta[1,2-b]quinolin-8-amine] belongs 0.9 µM.
Turning to `COc1cccc2c(C(=O)O)cc(-c3ccccc3)nc12` [Example 4, 8-methoxy-2-phenyl-4-quinolinecarboxylic acid], the IC50 at N-type calcium channel is above 10 µM.
Same read-out and setting: as for `CCc1c(-c2ccccc2)nc2ccccc2c1C(=O)O` [Example 23, 3-ethyl-2-phenyl-4-quinolinecarboxylic acid], the figure is above 10 µM; as for `Cc1cccc(-c2cc(C(=O)O)c3ccccc3n2)c1` [Example 33, 2-(3-methylphenyl)-4-quinolinecarboxylic acid], above 10 µM; as for `CC(=O)Nc1cc(/C=C/c2ccccc2)nc2ccccc12` [Example 12, N-{2-[(E)-2-phenylethenyl]-4-quinolinyl}acetamide], 5 µM.
`Nc1cc(-c2ccc(F)cc2)nc2ccccc12` [Example 30, 2-(4-fluorophenyl)-4-quinolinamine]: the IC50 at N-type calcium channel worked out at 3.4 µM.
For the compound `Nc1cc(-c2cccs2)nc2ccccc12` [Example 14, 2-(2-thienyl)-4-quinolinamine], the inhibition in vivo at 30 mg/kg in assay [1] (ip, 30 mg/kg, i.p., rats) is 25%. In addition, the IC50 on N-type calcium channel was 5.4 µM.
`Cc1c(-c2ccccc2)nc2ccccc2c1N` [Example 16, 3-methyl-2-phenyl-4-quinolinamine]: the inhibition in vivo at 30 mg/kg stood at 91% in assay [1] (ip) and 11% in assay [1] (po). Moreover, the IC50 on N-type calcium channel is 3.6 µM.
With `Nc1cc(-c2ccccc2)nc2ccccc12` [Example 6, 2-phenyl-4-quinolinamine], in assay [1] (ip, 30 mg/kg, i.p., rats), the inhibition in vivo at 30 mg/kg was 88%. Further, the IC50 at N-type calcium channel turned out to be 4.4 µM.

These data come from patent publication US6906193B2, “N-type calcium channel antagonists for the treatment of pain” (AstraZeneca AB, priority 2000, dated 2005).
